We go through three compounds from PMC11052071, “Novel JAK Inhibitors to Reduce Graft-Versus-Host Disease after Allogeneic Hematopoietic Cell Transplantation in a Preclinical Mouse Model” (Molecules, 2024).

Each structure is given as a SMILES string. pIC50: −log10 of the molar value.

One series concerns the target JAK1 (Homo sapiens, UniProt P23458). As to the kind of experiment: Z'-LYTE enzyme activity assay (SelectScreen Kinase Profiling), JAK1.
Another series deals with TYK2 (Homo sapiens, UniProt P29597). Briefly: Z'-LYTE enzyme activity assay (SelectScreen Kinase Profiling), TYK2.
Series [1] concerns phosphorylation of STAT1, STAT3, and STAT5. Briefly: STAT phosphorylation in primary human T cells (Western blotting). The note with it: starvation 1 h, stimulated with 10 ng/mL IFN-α. The format is cell-based. The source says:
Subsequently, we examined the ability of WU4 and WU8 to inhibit JAK signaling by measuring the levels of phosphorylation of STATs, downstream transcription factors of JAK signaling. […] This inhibitory capacity of WU4 and WU8 correlates with their IC50 values (Figure 1J) and the ability to reduce CXCR3 expression (Figure 3). We then decided to further investigate WU4 and WU8 as potent novel JAK inhibitors for the prevention of GvHD in our preclinical mouse model of allo-HCT.
Figure 4 Effect of WU4 and WU8 on the inhibition of JAK signaling in primary human T cells. STAT phosphorylation was determined as the indicator of JAK signaling. Primary human T cells were obtained from the peripheral blood of healthy donors. […] The phosphorylation of STATs was measured by Western blotting. Total […] and GAPDH served as loading controls.

A further series has as its system GvHD. As to the kind of experiment: Preclinical mouse model of allo-HCT (GvHD). The format is in vivo, Balb/c recipient mice. To be noted: for % of recipient and donor BM-derived APCs in spleens / % of CD80-expressing donor-derived APCs in spleens / % of Tregs in the spleens: 20 mg/kg s.c., day 6 after allo-HCT; for % of recipient and donor BM-derived APCs in spleens: vs control. An excerpt: To determine the potential of WU4 and WU8 in preventing GvHD, we performed allo-HCT in which 5 × 10^6 T cell-depleted bone marrow (TCD-BM; CD45.1+) and 5 × 10^5 splenic pan T cells (CD45.2+) obtained from B6 mice were transplanted into lethally irradiated (900 cGy on day −1) Balb/c allogeneic recipient mice on day 0. […]. […] Among monocyte subsets, we only considered classical (LyG6^−CD11b^+Ly6C^high) and intermediate monocytes (LyG6^−CD11b^+Ly6C^middle) as APCs, excluding non-classical monocytes (LyG6^−CD11b^+Ly6C^low) due to their anti-inflammatory function, which downregulates antigen presentation during inflammation. […]
Figure 5 In vivo administration of WU4 and WU8 reduces GvHD by increasing % of Tregs while suppressing % of APCs and costimulatory proteins on APCs after allo-HCT. Allo-HCT was performed as follows: 5 × 10^6 TCD-BM (CD45.1+) and 5 × 10^5 splenic T cells (CD45.2+) obtained from B6 mice were transplanted on day 0 into lethally irradiated (900 cGy on day −1) Balb/c allogeneic recipient mice. TCD-BM-only group served as a no-GvHD control. […] (A,B) The mice were monitored for survival and GvHD signs. (C–F) Whole splenocytes were analyzed for % of Tregs, recipient/BM-derived APCs, and CD80-expressing APCs on day 6 after allo-HCT. LyG6^−CD11b^+Ly6C^high and LyG6^−CD11b^+Ly6C^middle served as classical and intermediate monocyte subsets. NT: neutrophils. * p < 0.05, ** p < 0.01, and *** p < 0.001. All error bars are represented as mean ± standard deviation.
Allo-HCT was performed as previously described. Briefly, BALB/c mice were used as recipients and received 9 Gy total body irradiation on day −1, then were transplanted with 5 × 10^6 T cell-depleted bone marrow (TCD-BM) cells from B6 (CD45.1+) mice along with 0.5 × 10^6 splenic T cells from B6 (CD45.2+) mice on day 0. Mouse TCD-BM and splenic T cells were prepared using an EasySep mouse CD90.2 positive selection kit II and an EasySep mouse T cell isolation kit ([…] Technologies, Cambridge, MA, USA), respectively.
GvHD clinical scores were assessed twice per week by a scoring system incorporating five clinical criteria: weight loss (diarrhea scored 1 regardless of weight change), posture (hunching), mobility, fur texture, and skin integrity, as previously described. Individual mice were scored from 0 to 2 for each criterion and were sacrificed with GvHD scores of 6 or above, following our approved animal protocol.
T cells from in vitro primary murine T cell culture, fresh peripheral blood, or whole splenocytes were analyzed according to cell surface and intracellular markers. Surface markers were directly stained with flow antibodies for 20 min at 4 °C. For intracellular staining (FOXP3 and T-bet), cells were fixed and permeabilized after surface staining using appropriate buffers (One-step intracellular nuclear protein staining protocol, eBioscience, San Diego, CA, USA) and stained with flow antibodies. The antibodies used for flow cytometric analyses for mouse cells were as follows: FOXP3, T-BET, and CD183 (eBioscience, San Diego, CA, USA); CD3, H2-Kb, H2-Kd, CD4, B220, CD11b, CD11c, Ly6C, and DEC205 (BioLegend, San Diego, CA); and CD8, CD45.2, CD80, and Ly6G (BD Pharmingen, San Jose, CA, USA). All cells were run on a ZE5 Cell Analyzer (BD Biosciences, Mountain View, CA, USA) or Attune® NxT (Thermofisher Scientific, Waltham, MA, USA) and analyzed with the FlowJo software, version 10.9.0 (FlowJo LLC., Ashland, OR, USA).

A short description of series [2]: Mouse PK after subcutaneous injection. The note with it: 2 mg/kg s.c., CD-1 mice, time points up to 6 h; WU derivatives compared to BARI. The format is in vivo.
The mark [3] stands for this setting: 20 mg/kg s.c. once daily for 3 weeks from day 3, vs vehicle control.
Where [4] appears, read: dose not given, compared to WU4.
[5] abbreviates: 4 mg/kg s.c. once daily for 3 weeks from day 3, vs vehicle control.

Chain of TYK2 (P29597 whole entry): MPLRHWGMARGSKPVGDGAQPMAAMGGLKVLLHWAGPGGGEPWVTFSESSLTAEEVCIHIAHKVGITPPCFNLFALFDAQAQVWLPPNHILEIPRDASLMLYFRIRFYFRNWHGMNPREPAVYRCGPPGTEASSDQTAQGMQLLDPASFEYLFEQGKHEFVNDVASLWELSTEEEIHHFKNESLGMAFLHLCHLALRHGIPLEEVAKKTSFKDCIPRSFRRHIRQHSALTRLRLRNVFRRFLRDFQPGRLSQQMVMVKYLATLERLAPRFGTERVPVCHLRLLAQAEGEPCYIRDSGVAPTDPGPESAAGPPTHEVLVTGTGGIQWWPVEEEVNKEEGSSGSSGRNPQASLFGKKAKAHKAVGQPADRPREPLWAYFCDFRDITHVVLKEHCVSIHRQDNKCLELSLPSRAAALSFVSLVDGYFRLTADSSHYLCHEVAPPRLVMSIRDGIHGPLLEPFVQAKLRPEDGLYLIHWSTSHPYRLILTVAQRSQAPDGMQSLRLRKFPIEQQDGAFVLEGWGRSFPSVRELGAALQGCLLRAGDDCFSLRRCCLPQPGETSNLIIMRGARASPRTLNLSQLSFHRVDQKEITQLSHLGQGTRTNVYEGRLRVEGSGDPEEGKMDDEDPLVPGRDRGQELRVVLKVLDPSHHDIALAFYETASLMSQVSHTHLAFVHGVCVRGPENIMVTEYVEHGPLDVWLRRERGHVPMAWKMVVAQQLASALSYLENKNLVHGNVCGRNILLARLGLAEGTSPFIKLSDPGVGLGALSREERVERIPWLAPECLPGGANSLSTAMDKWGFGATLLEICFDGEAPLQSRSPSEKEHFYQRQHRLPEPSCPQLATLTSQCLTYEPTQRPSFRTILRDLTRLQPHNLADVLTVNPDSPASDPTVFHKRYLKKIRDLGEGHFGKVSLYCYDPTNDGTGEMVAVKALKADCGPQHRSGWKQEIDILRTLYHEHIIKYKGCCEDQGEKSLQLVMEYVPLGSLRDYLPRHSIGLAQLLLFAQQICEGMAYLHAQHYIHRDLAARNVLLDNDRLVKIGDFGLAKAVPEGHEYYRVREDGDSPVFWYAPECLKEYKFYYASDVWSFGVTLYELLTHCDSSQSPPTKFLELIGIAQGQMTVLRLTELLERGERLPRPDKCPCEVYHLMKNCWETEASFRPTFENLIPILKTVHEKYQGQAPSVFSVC
Chain of JAK1 (P23458 whole entry): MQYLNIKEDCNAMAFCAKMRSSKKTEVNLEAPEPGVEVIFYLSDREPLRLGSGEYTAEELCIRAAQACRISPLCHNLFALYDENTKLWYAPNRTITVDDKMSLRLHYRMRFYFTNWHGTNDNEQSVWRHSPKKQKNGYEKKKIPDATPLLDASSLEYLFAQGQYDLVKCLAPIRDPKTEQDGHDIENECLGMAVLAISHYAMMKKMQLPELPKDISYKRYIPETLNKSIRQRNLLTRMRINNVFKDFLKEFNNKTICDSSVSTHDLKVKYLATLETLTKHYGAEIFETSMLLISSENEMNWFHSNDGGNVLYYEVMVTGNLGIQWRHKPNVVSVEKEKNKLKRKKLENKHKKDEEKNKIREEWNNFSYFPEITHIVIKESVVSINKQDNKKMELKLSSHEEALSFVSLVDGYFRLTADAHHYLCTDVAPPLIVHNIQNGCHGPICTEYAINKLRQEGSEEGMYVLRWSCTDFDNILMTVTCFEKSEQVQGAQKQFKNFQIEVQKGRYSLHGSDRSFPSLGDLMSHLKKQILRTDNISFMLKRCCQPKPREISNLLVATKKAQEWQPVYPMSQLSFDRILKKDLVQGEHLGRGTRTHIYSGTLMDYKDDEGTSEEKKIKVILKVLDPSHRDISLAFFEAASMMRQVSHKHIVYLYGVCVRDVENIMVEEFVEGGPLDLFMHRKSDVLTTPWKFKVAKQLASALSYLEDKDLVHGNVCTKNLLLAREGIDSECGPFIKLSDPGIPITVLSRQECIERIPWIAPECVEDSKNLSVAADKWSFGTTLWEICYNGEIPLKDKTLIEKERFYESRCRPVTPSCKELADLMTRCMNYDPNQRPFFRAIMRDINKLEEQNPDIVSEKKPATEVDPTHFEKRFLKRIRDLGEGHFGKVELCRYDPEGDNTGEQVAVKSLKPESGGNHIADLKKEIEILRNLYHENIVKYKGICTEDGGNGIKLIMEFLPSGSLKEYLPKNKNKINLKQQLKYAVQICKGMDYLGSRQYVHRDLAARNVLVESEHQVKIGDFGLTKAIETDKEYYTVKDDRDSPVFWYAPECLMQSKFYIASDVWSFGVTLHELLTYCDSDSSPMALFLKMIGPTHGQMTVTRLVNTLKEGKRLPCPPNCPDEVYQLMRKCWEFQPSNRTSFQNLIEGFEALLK

Turning to `CCS(=O)(=O)NC1CC2(C1)CC(CC#N)(n1cc(-c3ncnc4[nH]ccc34)cn1)C2` (stereo not shown) [WU4], the pIC50 on JAK1 (IC50 JAK1, ATP at 1 mM) was 9.28; on JAK1 (IC50 JAK1, ATP at app. Km) it was 9.34; at TYK2 (IC50 TYK2, ATP at 1 mM) it was 8.96; on TYK2 (IC50 TYK2, ATP at app. Km), 9.38. Moreover, the “phosphorylation of STATs” value in series [1] was “inhibit the phosphorylation of STAT1, STAT3, and STAT5”. In the series on GvHD (setting [3]), the “clinical GvHD scores” value is given as “did not significantly improve GvHD”. For the same compound, in the series with GvHD (setting [3]), the overall survival entry is listed as “failed to provide any survival benefits”. Besides, the “% of recipient and donor BM-derived APCs in spleens” value in the series with GvHD is “reducing the % of donor-derived CD11b+ APCs”. The “% of CD80-expressing donor-derived APCs in spleens” value in the series with GvHD (vs vehicle control) is “reducing the % of donor-derived CD11b+ APCs and CD80-expressing B cells”. In addition, the “% of Tregs in the spleens” value in the series with GvHD (vs vehicle control) is on record as “significantly increasing the % of Tregs”. Also, the “plasma drug concentration (mouse PK)” value in series [2] is on record as “comparable PK to BARI throughout all time points”.

In the case of `N#CCC1(n2cc(-c3ncnc4[nH]ccc34)cn2)CC2(CC(NS(=O)(=O)C(F)(F)F)C2)C1` (stereo not shown) [WU6], the pIC50 was 8.46 against JAK1 (IC50 JAK1, ATP at 1 mM); 9.22 against JAK1 (IC50 JAK1, ATP at app. Km); 8.19 on TYK2 (IC50 TYK2, ATP at 1 mM); 9.12 at TYK2 (IC50 TYK2, ATP at app. Km). Moreover, in the series with GvHD (setting [4]), the “clinical GvHD scores” value is “significantly less clinical GvHD scores”. In the series on GvHD (setting [4]), the overall survival result is reported as “improved overall survival”. The “percentage of donor-BM-derived B and T cells in the PB” value in the series on GvHD (dose not given, day 27 after allo-HCT, compared to WU4) is “increased percentage of donor-BM-derived B and T cells”.

Consider `N#CCC1(n2cc(-c3ncnc4[nH]ccc34)cn2)CCS(=O)(=O)CC1` [WU8], for which the pIC50 is 8.15 on JAK1 (IC50 JAK1, ATP at 1 mM); 8.97 against JAK1 (IC50 JAK1, ATP at app. Km); 7.31 at TYK2 (IC50 TYK2, ATP at 1 mM); 8.55 against TYK2 (IC50 TYK2, ATP at app. Km). In series [1], the “phosphorylation of STATs” value is “inhibit the phosphorylation of STAT1, STAT3, and STAT5”. The figures for the “clinical GvHD scores” value with GvHD (setting [5]) and with GvHD (setting [3]) were “less GvHD” and “improved clinical GvHD scores”, respectively. The overall survival result in the series on GvHD (setting [5]) is “mild trend towards improved survival”; with GvHD (setting [3]) it was “significantly increased overall survival”. Also, the “% of recipient and donor BM-derived APCs in spleens” value with GvHD was “reduced the % of both the residual recipient and donor BM-derived APCs”. In addition, the “% of CD80-expressing donor-derived APCs in spleens” value in the series on GvHD (vs vehicle control) is listed as “decreased”. In addition, the “% of Tregs in the spleens” value in the series on GvHD (vs vehicle control) was “trend towards higher frequencies of Tregs”. For the same compound, the “plasma drug concentration (mouse PK)” value in series [2] is on record as “significant increase in plasma drug concentration at 2 h post-dose”.

Broadly, the pIC50 is the negative decadic logarithm of the IC50, by convention in mol/L.
